According to article PMC1373645, “Lactate production yield from engineered yeasts is dependent from the host background, the lactate dehydrogenase source and the lactate export” (Microbial Cell Factories, 2006):

Biological target: T1, bovine Ldh-A (BtLDH) (Bos taurus, UniProt P19858)
T1 construct: gene LDHA; full length, untagged, expressed in S. cerevisiae GRF18U; crude cell extract; homotetramer
Assay: LDH activity of crude yeast extract with added lactate (Sigma kit DG1340-UV)
Type: biochemical
Conditions: read-out: % inhibition at 10 g/l

## C[C@H](O)C(=O)O [lactate]
  inhibition at 10000 µg/mL: ~40%
